We go through one compound from article PMC6337671, “Simultaneous Determination of Five Phenolic Acids and Four Flavonoid Glycosides in Rat Plasma Using HPLC-MS/MS and Its Application to a Pharmacokinetic Study after a Single Intravenous Administration of Kudiezi Injection” (Molecules, 2018).

Molecules are shown by their SMILES.

Series [1] in a line: Stability of the nine components in rat plasma QC samples (auto-sampler, freeze-thaw, long-term). The series is classed as physicochemical. The conditions noted are these: n = 5; for 6 h in Auto-Sample, RE: extracted rat plasma; for Freeze-Thaw Stability (Three Cycles), RE / Long-Term Stability (−80 °C, 14 Days), RE: rat plasma. The method, then:
The stability of the nine components in rat plasma was investigated under a variety of storage and process conditions. Table 4 summarizes the results of post-preparation (The QC samples were kept in the auto-sampler for 6 h), freeze and thaw and long-term (at −80 °C for 14 days) stability experiments.
Stability of the nine components were assessed under the condition of placing extracted plasma samples in auto-sampler for 6 h, as well as placing plasma samples within freeze-thaw three cycles and at −80 °C for 14 days. LQC, MQC and HQC samples with five replicates at each level were kept at the above conditions and analyzed against freshly prepared calibrators as the reference.

A short description of series [2]: Pharmacokinetic study in rats after a single intravenous administration of concentrated Kudiezi injection (HPLC-MS/MS of plasma). The series is classed as in vivo, Sprague-Dawley rats. The conditions noted are these: male, Sprague-Dawley, rat, plasma, iv, 3.6 mL/kg, single i.v. 3.6 mL/kg of 15 times concentrated KI, mean ± SD.
Procedure: Eight male Sprague-Dawley rats (200 ± 20 g) were obtained from Laboratory Animal Center of Fujian Medical University (Fuzhou, China). The animal studies were conducted in accordance with the Guide for the Care and Use of Laboratory Animals published by the USA National Institutes of Health (NIH Publication No. 85-23, revised 1996) and were approved by the Animal Ethic Review Committee of Fujian Medical University (Fuzhou, China). The rats were housed in rat cages (48 × 29 × 18 cm^3), in a unidirectional airflow room at a temperature of 22 ± 2 °C, a relative humidity of 40–70% and a 12 h light/dark cycle. They were fed with freely available commercial food and filtered tap water, and fasted with free access to water for 12 h before the experiments. Three of these rats were selected randomly as blank group with the above mentioned feeding conditions and without administration of drug, and after 24 h from the beginning of the experiment, their blood was collected up exhaustively from abdominal aorta to provide blank plasma for methodological validation. […] All rats were acclimated to the facilities and environment for 7 days before the experiments.
After administration, the rat tail was carefully cleaned with alcohol soaked cotton balls around the injection site to remove the residual drug. Blood was collected from the cut-tail before dosing and at the following time points: 2.5, 5, 10, 15, 20, 30, 45 min and 1, 2, 3, 4, 6, 8, 12 and 24 h after dosing. Plasma was isolated from the blood samples by centrifugation and then stored at −80 °C until analysis.
Noncompartmental pharmacokinetic parameters were calculated by DAS 3.0 software (Version DAS 3.2.8, Chinese Pharmacologic Society, Beijing, China). All the results are expressed as mean ± SD. A single-tailed Student’s t test was performed in the work.
For series [3], the system named is Mas-related G protein coupled receptor X2. Further details: method as in PMID 30048896. The conditions noted are these: cited from earlier work.
Where [4] appears, read: HQC spiked 2000 ng/mL (4000 ng/mL for II).
[5] abbreviates: LQC spiked 15 ng/mL (30 ng/mL for II).
Setting [6] is: MQC spiked 500 ng/mL (1000 ng/mL for II).

Regarding `O=C(O)[C@H]1O[C@@H](Oc2cc(O)c3c(=O)cc(-c4ccc(O)cc4)oc3c2)[C@H](O)[C@@H](O)[C@@H]1O` [IX, apigenin-7-O-β-D-glucuronide], in series [1] (setting [4]), the “6 h in Auto-Sample, RE” value was 7.78%; the “Freeze-Thaw Stability (Three Cycles), RE” value is 3.36%; the “Long-Term Stability (−80 °C, 14 Days), RE” value (“Long-Term Stability” for short) amounted to 5.33%. Further, in series [1] (setting [5]), the “6 h in Auto-Sample, RE” value is −13.77%; the “Freeze-Thaw Stability (Three Cycles), RE” value was −13.08%; the “Long-Term Stability” value was −2.73%. Besides, in series [1] (setting [6]), the “6 h in Auto-Sample, RE” value is on record as −1.56%; the “Freeze-Thaw Stability (Three Cycles), RE” value was found to be 0.53%; the “Long-Term Stability” value is listed as −0.28%. Also, in series [2] (n = 5), the AUC(0-inf) is 0.0561 ± 0.00849 µg·h/mL, the clearance was 10.1 L/h/kg and the half-life was 4.2 ± 0.6 min. Besides, the AUC(0-t) in series [2] (n = 5, read-out: AUC0-t) worked out at 0.0557 ± 0.0085 µg·h/mL. Further, the MRT last in series [2] (n = 5, read-out: MRT0-t) was found to be 5.4 ± 0.6 min. For the same compound, the MRT inf in series [2] (n = 5, read-out: MRT0-∞) turned out to be 5.4 ± 0.6 min. For the same compound, in series [2] (n = 5, read-out: Vd), the distribution volume (Vd) was 1 ± 0.24 L/kg. In addition, in series [3], the “identified as potential anaphylactoid component in KI” value is given as “potential anaphylactoid components”.

As a reminder, the AUC(0-inf) is the area under the concentration-time curve extrapolated to infinity. Lower therefore signals low exposure. For orientation: clearance means a measure of how efficiently the substance is removed, as volume per time. By half-life is commonly meant how long it takes for the measured level to halve. A low value points to fast loss. By Vd is commonly meant the apparent volume that relates the amount in the body to the concentration in plasma or blood.
